# Test results from patent US20020177168A1, “Chemical sensor and method of detecting chemicals” (priority 2000, published 2002).
# What was measured:
# OBPb [1] = target: T1, OBPb (Bos taurus, UniProt P07435); assay: Time variation of tryptophane and AMA fluorescence upon addition of AMA to OBPb; assay type: binding, bovine; details: ex 295 nm
# T1 sequence (P07435 1-159): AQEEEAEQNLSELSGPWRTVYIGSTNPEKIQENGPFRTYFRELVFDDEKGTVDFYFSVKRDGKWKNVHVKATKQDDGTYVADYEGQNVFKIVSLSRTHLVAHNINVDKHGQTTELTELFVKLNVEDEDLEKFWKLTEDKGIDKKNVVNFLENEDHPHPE
# Description: (§1) An OBPb solution of 10 μM in concentration was prepared. AMA, DMO and geraniol were dissolved in ethanol respectively, for preparing an AMA solution, a DMO solution and a geraniol solution of 10^−2 M in concentration.
# Then, time variations of fluorescence from AMA and fluorescence from tryptophane upon addition of AMA were measured. FIG. 13 illustrates results of measurement of fluorescence intensity change of tryptophane bonded with AMA. The excitation wavelength for tryptophane is 295 nm, and the fluorescence wavelength is 340 nm. FIG. 14 illustrates results of measurement of fluorescence intensity change of AMA bonded with […]. The excitation wavelength for AMA is 295 nm, and the fluorescence wavelength is 480 nm. Referring to FIGS. 13 and 14, the horizontal axes show post-addition elapsed times, and the vertical axis show relative fluorescence intensity difference levels. The relative fluorescence intensity difference was calculated by dividing the difference between fluorescence intensity at a time 0 and fluorescence intensity at each time by the fluorescence intensity at the time 0.
# OBPb [2] = target: T1, OBPb; assay: Dissociation constant KD of odorant for OBPb; assay type: binding, bovine; details: affinity of odorant for OBPb
# [3] = target: T2, bovine derivation odorant binding protein (OBPb) (Bos taurus, UniProt P07435); assay: Fluorometry of OBPb with DMO and BPA at different concentrations (Inventive Example 2); details: for attenuation of fluorescence intensity versus concentration: 10^−9 to 10^−6 M
# T2 sequence (P07435 1-159): T1 sequence (P07435 1-159)
# Description: In preparation of the OBPb solution employed for Inventive Example 2, an OBPb solution of 250 nM in concentration was prepared by a method similar to that in Inventive Example 1.
# In preparation of the DMO solutions and the BPA solutions employed for Inventive Example 2, on the other hand, two types of odorants of DMO and BPA were dissolved in ethanol (EtOH) respectively, for preparing a solution of 10^−2 M in concentration as to each odorant. Further, the DMO solution and the BPA solution of 10^−2 M in concentration prepared in the aforementioned manner were diluted with EtOH respectively, thereby preparing solutions of 10^−3 M, 10^−4 M, 10^−5 M and 10^−6 M in concentration respectively. Thus, DMO solutions and BPA solutions of 10^−3 M, 10^−4 M, 10^−5 M and 10^−6 M in concentration were prepared.
# 300 μl of the OBPb solution of 250 nM in concentration and 0.3 μl of each of the DMO solutions of 10^−3 M, 10^−4 M, 10^−5 M and 10^−6 M in concentration prepared in the aforementioned manner were mixed with each other thereby preparing sample solutions having final DMO concentrations of 10^−9 M, 10^−8 M, 10^−7 M and 10^−6 M respectively. Sample solutions having final concentrations of 10^−9 M, 10^−8 M, 10^−7 M and 10^−6 M respectively were prepared also as to BPA by a preparation method similar to that for the case of DMO.
# After preparing the sample solutions in the aforementioned manner, the fluorescence intensity was measured as to each sample solution by a method similar to that in Inventive Example 1. Further, the relation between the concentrations and the fluorescence intensity of DMO and BPA was investigated on the basis of results at a point after a lapse of 20 minutes from initiation of measurement and at a point after a lapse of 30 minutes from initiation of measurement among results obtained by measuring the fluorescence intensity.
# Also in this case, the point of initiation of measurement was set to the point of an elapsed time of 0 minutes while setting the fluorescence intensity at this point to 100% as a reference value for calculating a relative value of the fluorescence intensity at each point on the basis of this reference value.
# [4] = target: T3, OBPb-del (OBPb with Phe 149 up to Glu 159 deleted) (Bos taurus, UniProt P07435); assay: Relative tryptophane fluorescence intensity change after DMO addition, OBP-del; assay type: binding, bovine; details: DMO 10 μM, OBPb 250 nM, 25 degrees, ex 295 nm, em 340 nm
# T3 construct: made in house
# T3 sequence (P07435 1-148): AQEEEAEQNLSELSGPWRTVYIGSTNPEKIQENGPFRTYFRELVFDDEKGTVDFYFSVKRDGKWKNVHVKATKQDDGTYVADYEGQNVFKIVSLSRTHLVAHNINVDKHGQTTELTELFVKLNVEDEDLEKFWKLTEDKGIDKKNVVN
# Description: (§2) OBPb-norm shown in FIG. 7(a) is normal (unvaried) OBPb. OBPb-del shown in FIG. 7(b) is OBPb obtained by deleting Phe (phenylalanine) 149 up to Glu (glutamic acid) 159.
# (§3) As to the OBPb-norm and the OBP-del, the relation between post-addition elapsed times and change of relative fluorescence intensity was investigated by adding dimethyl octanol (DMO) employed as an odorant to OBPb solutions.
# (§4) The concentration of OBPb in PBS was set to 250 nM, and the concentration of a DMO solution was set to 10 μM. The DMO solution was added to the OBPb solution, which in turn was thereafter incubated at 25 degrees, for taking out part at each time and measuring fluorescence (excitation wavelength: 295 nm, fluorescence wavelength: 340 nm) of tryptophane present in the central pocket CP.
# (§5) The difference in relative fluorescence intensity was calculated by dividing the difference between fluorescence intensity at a time 0 and fluorescence intensity at each time by the fluorescence intensity at the time 0.
# OBP-del = target: T4, OBP-del (Bos taurus, UniProt P07435); assay: Time variation of peaks of tryptophane difference fluorescence spectra, OBP-del; assay type: binding, bovine; details: during bonding reaction, 0 to 60 minutes
# T4 construct: made in house
# T4 sequence (P07435 1-148): T3 sequence (P07435 1-148)
# From the text: (§6) Then, time variations of peaks of fluorescence spectra of tryptophane in central pockets CP bonded with odorants were investigated as to DMO and geraniol employed as odorants.
# (§7) When tryptophane is in OBPb, the peak wavelength of the fluorescence spectrum of tryptophane is 345 nm. In general, the fluorescence wavelength of tryptophane shifts to a longer wavelength in hydrophilic environment, and shifts to a shorter wavelength in hydrophobic environment. At this point, a fluorescence spectrum upon bonding with an odorant was measured for calculating difference between the same and a spectrum at 0 minutes and investigating the relation between the peak intensity and the elapsed time.
# (§8) The difference spectrum was calculated by subtracting the fluorescence spectrum at each time from the fluorescence spectrum at 0 minutes. When a peak of the fluorescence spectrum at a certain time shifts to a shorter wavelength beyond 345 nm (i.e., rendered hydrophobic), therefore, it follows that the peak of the difference spectrum shifts to a longer wavelength beyond 345 nm to the contrary.
# OBPb bonded with AMA = target: T5, OBPb bonded with AMA (Bos taurus, UniProt P07435); assay: Substitution of AMA bonded to OBPb by other odorants (AMA and tyrosine fluorescence); assay type: binding, bovine; details: for fluorescence intensity of tyrosine on adding the odorant: ex 250 nm, em 300 nm, immediately after addition (0 minutes); for fluorescence intensity of AMA / dissociation of AMA from OBPb on adding the odorant: ex 295 nm, em 481 nm, 0 minutes
# T5 sequence (P07435 1-159): T1 sequence (P07435 1-159)
# Description: Further, investigation was made as to how an odorant once bonded to OBPb behaves when other odorants are thereafter bonded. Aminoanthracene (AMA) which is a fluorescent odorant was employed as a previously bonded odorant, and DMO and geraniol were used as odorants added to the AMA bond.
# as §1
# First, 0.1 μl of an AMA solution was added to 100 μl of an OBPb solution, and left to stand at 25° C. for one hour for bonding AMA to OBPb. Phosphate buffer saline (PBS) was added to this solution up to 4 ml (diluted to 40 times), 4 μl of ethanol, DMO or geraniol was added and thereafter parts of 300 μl were taken out after lapses of 0, 5, 10, 15, 20, 25, 30, 40 and 60 minutes for measuring fluorescence intensity of AMA (excitation wavelength: 295 nm, measurement wavelength: 481 nm) and fluorescence intensity of […].
# In measurement of the fluorescence intensity of tyrosine, the excitation wavelength is 250 nm, and the measurement wavelength is 300 nm. Tyrosine is present in an internal cavity of a monomer of OBPb. Therefore, dissociation of the odorant from the internal cavity IC can be measured by change of the fluorescence intensity of tyrosine (the fluorescence reduces when tyrosine becomes hydrophilic).
# OBPb-norm (normal OBPb) = target: T6, OBPb-norm (normal OBPb) (Bos taurus, UniProt P07435); assay: Relative tryptophane fluorescence intensity change after DMO addition, OBPb-norm; assay type: binding, bovine; details: DMO 10 μM, OBPb 250 nM, 25 degrees, ex 295 nm, em 340 nm
# T6 sequence (P07435 1-159): T1 sequence (P07435 1-159)
# Description: as §2, §3, §4, §5
# [5] = target: T7, OBPb-norm central pocket CP (Bos taurus, UniProt P07435); assay: Time variation of peaks of tryptophane difference fluorescence spectra, OBPb-norm; assay type: binding, bovine; details: 0 to 60 minutes after addition
# T7 sequence (P07435 1-159): T1 sequence (P07435 1-159)
# From the text: as §6, §7, §8
# [6] = target: T2, bovine derivation odorant binding protein (OBPb); assay: Fluorometry of tryptophane fluorescence of OBPb with four odorants (Inventive Example 1); details: for affinity for the OBPb (relative, among the four odorants): FIG. 4(b); for reduction of the fluorescence intensity: odorant 10 μM, OBPb 250 nM, excitation 280 nm, fluorescence 340 nm, among the four odorants, FIG. 4(b) at 10 minutes
# Description: In order to prepare the OBPb solution employed for Inventive Example 1, bovine derivation odorant binding protein (OBPb) was first dissolved in a phosphate buffer (PBS; phosphate buffered saline), and PBS was further added to this OBPb solution for diluting the same until the concentration of the solution reached 250 nM.
# In order to prepare the odorant solution employed for Inventive Example 1, four types of odorants, i.e., dimethyl octanol (DMO), citronellal, citronellol and geraniol were dissolved in ethanol solutions (EtOH) respectively, for preparing an odorant solution of 10^−2 M in concentration as to each odorant.
# 300 μl of the OBPb solution of 250 nM in concentration and 0.3 μl of each odorant solution of 10^−2 M in concentration prepared in the aforementioned manner were mixed with each other for preparing a sample solution employed for measuring fluorescence intensity as to each of the four types of odorants. In this case, the final concentration of the odorant in each sample solution is 10 μM. A sample of only OBPb containing no odorant, i.e., that obtained by mixing an OBPb solution and an ethanol solution with each other, was also prepared as a comparative sample.
# Each sample solution prepared in the aforementioned manner was introduced into a quartz cell for fluorescence while sealing an opening for preventing evaporation. The aforementioned cell was set in a cell holder of a fluorometer (F-4000 by Hitachi, Ltd.) and left to stand for 10 minutes for temperature balancing.
# In measurement of the fluorescence intensity of each sample solution, a shutter of the fluorometer was first opened for irradiating the sample solution with light of 280 nm in wavelength from a slit of 10 nm in width and exciting tryptophane constituting the OBPb contained in the sample solution. Fluorescence of 340 nm in wavelength obtained from the tryptophane excited in this manner was taken out through the slit of 10 nm in width, for measuring the intensity of the obtained fluorescence.
# In this case, the switching time for the shutter of the fluorometer was set to two seconds for opening/closing the shutter at intervals of five minutes and measuring the fluorescence intensity of the sample solution over 30 minutes.
# Referring to FIG. 4, the point of initiation of measurement is set to the point of the elapsed time of 0 minutes, and the fluorescence intensity of the sample solution at this point is set to 100%. Thus, the fluorescence intensity at the elapsed time of 0 minutes, i.e., the point of initiation of measurement was set to 100% as to each sample solution for regarding this as a reference value and calculating a relative value of the fluorescence at each point every five minutes on the basis of this reference value.
Compound,fluorescence intensity of tryptophane after addition of AMA (OBPb [1]; em 340 nm),fluorescence intensity of AMA after addition of AMA (OBPb [1]; em 480 nm),Kd (OBPb [2]),attenuation of fluorescence intensity versus concentration ([3]; after 20 and 30 minutes),range in which discrimination based on the fluorescence intensity is possible ([3]; after 20 and 30 minutes),range in which discrimination based on the fluorescence intensity is possible ([3]; conversion of 10^−9 M),relative fluorescence intensity change of tryptophane with time [4],peak wavelengths of the difference spectra of tryptophane (OBP-del),fluorescence intensity of tyrosine on adding the odorant (OBPb bonded with AMA),fluorescence intensity of AMA / dissociation of AMA from OBPb on adding the odorant (OBPb bonded with AMA),relative fluorescence intensity change of tryptophane with time (OBPb-norm (normal OBPb)),bonding to the central pocket CP (from peak wavelengths of difference spectra) [5],"affinity for the OBPb (relative, among the four odorants) [6]",reduction of the fluorescence intensity [6]
"Nc1cccc2cc3ccccc3cc12 [AMA, Aminoanthracene]",temporarily reduces after addition of AMA and thereafter increases,"increases after addition of AMA, takes a constant value and thereafter reduces",~1300 nM,–,–,–,–,–,–,–,–,–,–,–
"CC(C)(c1ccc(O)cc1)c1ccc(O)cc1 [BPA, bisphenol A]",–,–,–,attenuation of the fluorescence intensity is reduced as the concentration of DMO or BPA is increased,10^−9 M,about 200 ppt,–,–,–,–,–,–,–,–
CC(C)CCCC(C)CCO (stereo not shown) [DMO],–,–,~300 nM,attenuation of the fluorescence intensity is reduced as the concentration of DMO or BPA is increased,10^−9 M,about 200 ppt,no variation with presence/absence of the odorant,remained unchanged,No change of the fluorescence intensity was observed,AMA dissociates immediately after addition,rises with time,dissociates after being bonded to the central pocket CP,highest affinity,at the minimum
CC(C)=CCC/C(C)=C/CO [geraniol],–,–,~3000 nM,–,–,–,–,remained unchanged,reduction of the fluorescence intensity was observed,AMA dissociates immediately after addition,–,remains bonded to the central pocket CP,lowest affinity,at the maximum
